Entries after “also recorded” stand apart in the source; their conditions may differ.
Tests used:
Candida albicans = conditions: fungus Candida albicans; cited from earlier work
environmental microbes = assay: Rehydrated tablet stability testing (daily scent, clarity, particulates, pressure; pass/fail); conditions: as preservative in Comparative Examples 3 and 4
Description: The key goals for the present invention, given that it is intended to be used for bottles that will be refilled many times to reduce plastic waste, are for the rehydrated formula to: • (a) be stable once rehydrated, meaning that the solution would no discernible microbial growth over a multi-month period of time and would maintain its physical characteristics, and • (b) work within an acceptable manufacturing process (both physically and in terms of cost).
In terms of physical characteristics measured, once the test tablets had been rehydrated, several observables were tracked each day such as scent, clarity, presence of particulates and pressure.
Scent was measured by comparing the scent each day to the original scent of an initially rehydrated bottle. When microbial activity is present it can create compounds, which add a distinctly unpleasant odor to the compositions. 2 Given the sensitivity of the human nose to such compounds, this would be a clear aesthetic failure for the product even if overall microbial growth remained below a level that could be harmful or otherwise impact use.
Regarding clarity, initially rehydrated solutions are completely transparent. […]
Once the initial dissolution process is complete, a rehydrated solution should contain no free-floating particulates. The appearance of any particles within the solution was recorded and visually evaluated. […]

fungus and yeast = assay: Growth inhibition of fungus and yeast by IPBC; type: cell-based; conditions: 100 ppm to 160 ppm
Description: (§1) In Examples 1 and 2, the concentration of IPBC was in the 100 ppm to 160 ppm range. This range inhibits the growth of all three categories of microbes. An amount of 100 ppm is a minimum safe amount to inhibit most types of microbial growth.

[1] = at comparable concentrations; cited from earlier work
mold/mildew/yeast/fungi = conditions: cited from earlier work
bacteria = assay: Inhibitory effect of IPBC against bacteria tested; type: cell-based
Description: as §1

algae = conditions: cited from earlier work

Compound: O=C([O-])c1ccccc1.[Na+] [sodium benzoate, reference compound]
- MIC (Candida albicans): about 2500 ppm

Compound: benzalkonium chloride [BKC]
- effectiveness in stability testing (preservation) (environmental microbes): somewhat effective; also recorded: better preservation than other non-IPBC-containing compositions tested

Compound: iodopropynyl butylcarbamate [IPBC]
- inhibition of growth of fungus and yeast (fungus and yeast): significantly inhibits
- comedogenicity [1]: noncomedogenic
- minimum inhibitory concentration (MIC) (mold/mildew/yeast/fungi): ≤ 10 ppm
- MIC (Candida albicans): about 8 ppm
- concentration with inhibitory effect against most bacteria tested (bacteria): 100 ppm
- minimum inhibitory concentration (MIC) (algae): ≤ 50 ppm

From patent publication US20240041708A1, “DEHYDRATED SOAP AND CLEANER TABLET COMPOSITION” (HAPPY GO LUCKY LLC, priority 2022, published 2024)
